Reference: patent US8975415B2, “Chromane compounds” (CoMentis, Inc., priority 2012, dated 2015)

Molecular target: T1, BACE1 (Homo sapiens (Human), UniProt P56817)
Assay: Measurement of BACE1 inhibition by fluorescence resonance energy transfer (FRET), MCA substrate
Conditions: read-out: Test Example 1 BACE1 MCA Ki; FRET, MCA substrate
Target sequence in this assay (P56817 75-416): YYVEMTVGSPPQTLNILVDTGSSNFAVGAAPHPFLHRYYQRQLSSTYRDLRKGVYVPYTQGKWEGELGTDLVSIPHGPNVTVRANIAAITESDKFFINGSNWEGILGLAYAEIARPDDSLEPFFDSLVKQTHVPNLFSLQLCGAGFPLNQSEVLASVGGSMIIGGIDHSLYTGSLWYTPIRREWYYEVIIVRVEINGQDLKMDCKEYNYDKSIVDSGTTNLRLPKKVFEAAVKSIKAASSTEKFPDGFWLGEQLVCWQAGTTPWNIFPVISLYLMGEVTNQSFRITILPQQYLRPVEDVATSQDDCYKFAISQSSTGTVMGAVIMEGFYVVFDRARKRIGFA

CC1(C)Oc2ccc(-c3cncnc3)cc2C2(COC(N)=N2)C12COC2 (single isomer, unassigned) [RP 51b, 2′,2′-dimethyl-6′-(pyrimidin-5-yl)dispiro[1,3-oxazole-4,4′-chromene-3′,3″-oxetan]-2-amine] and CC1(C)Oc2ccc(NC(=O)c3ccc(F)cn3)cc2C2(COC(N)=N2)C12COC2 (centres unmarked) [Example 28] are within 1.5-fold of each other in Ki: 0.137 µM for the first, 0.117 µM for the second.

Going from CC1(C)Oc2ccc(NC(=O)c3ncc(Cl)cc3F)cc2C2(COC(N)=N2)C12COC2 (centres unmarked) [Example 30] to NC1=NC2(CO1)c1cc(NC(=O)c3ccc(Cl)cn3)ccc1OCC21CC1 (centres unmarked) [RP 32], the Ki rises from 0.0515 µM to 0.378 µM (7.3-fold). The first binds more tightly here.

Same assay, conditions: read-out: Test Example 1 IC50; FRET, MCA-SEVNLDAEFK(DNP)-NH2 substrate, pH 4.4

First: COc1cncc(-c2ccc3c(c2)[C@@]2(COC(N)=N2)C2(COC2)[C@@H](C)O3)c1 (racemic) [RP 81]
Second: NC1=NC2(CO1)c1cc(-c3cncnc3)ccc1OC(C1CC1)C21COC1 (centres unmarked) [RP 89]
The IC50 of the first is 2.5-fold lower: 1.89 µM for the first, 4.67 µM for the second. The first is the more potent here.

NC1=NC2(CO1)c1cc(Br)ccc1OCC21CCCO1 (single isomer, unassigned) [RP 1a, 6′-bromo-4,5-dihydro-3H-dispiro[furan-2,3′-chromene-4′,4″-[1,3]oxazol]-2″-amine] and NC1=NC2(CO1)c1cc(Br)ccc1OCC21CCC1 (centres unmarked) [RP 8] are within 1.5-fold of each other in IC50: 73.3 µM for the first, 61.3 µM for the second.

Going from NC1=NC2(CO1)c1cc(Br)ccc1OCC21CCCO1 (single isomer, unassigned) [RP 1b, 6′-bromo-4,5-dihydro-3H-dispiro[furan-2,3′-chromene-4′,4″-[1,3]oxazol]-2″-amine] to NC1=NC2(CO1)c1cc(Br)ccc1OCC21CC1 (centres unmarked) [RP 17], the IC50 falls from 138 µM to 30.2 µM (4.6-fold).

Going from CCC1Oc2ccc(Br)cc2C2(COC(N)=N2)C12COC2 (single isomer, unassigned) [RP 9a] to CC(C)CC1Oc2ccc(Br)cc2C2(COC(N)=N2)C12COC2 (single isomer, unassigned) [RP 13a], the IC50 falls from 17.3 µM to 11.1 µM (1.6-fold).

CCC1Oc2ccc(Br)cc2C2(COC(N)=N2)C12COC2 (single isomer, unassigned) [RP 9b] and CC(C)CC1Oc2ccc(Br)cc2C2(COC(N)=N2)C12COC2 (single isomer, unassigned) [RP 13b] are within 1.5-fold of each other in IC50: 24.4 µM for the first, 19.3 µM for the second.

CCCC1Oc2ccc(Br)cc2C2(C=C(N)OC2)C12COC2 (single isomer, unassigned) [RP 11a] and NC1=NC2(CO1)c1cc(Br)ccc1OC(CCC(F)(F)F)C21COC1 (single isomer, unassigned) [RP 14a] are within 1.5-fold of each other in IC50: 15.6 µM for the first, 19 µM for the second.

Compared with CCCC1Oc2ccc(Br)cc2C2(C=C(N)OC2)C12COC2 (single isomer, unassigned) [RP 11b], NC1=NC2(CO1)c1cc(Br)ccc1OC(CCC(F)(F)F)C21COC1 (single isomer, unassigned) [RP 14b] is 2.5-fold higher in IC50: 17.4 µM for the first, 44.2 µM for the second.

Compared with NC1=NC2(CO1)c1cc(Br)ccc1OC(C1CC1)C21COC1 (single isomer, unassigned) [RP 12a], NC1=NC2(CO1)c1cc(Br)ccc1OCC21COC1 (centres unmarked) [RP 2] is 1.5-fold higher in IC50: 38.7 µM for the first, 59.6 µM for the second.

Going from NC1=NC2(CO1)c1cc(Br)ccc1OC(C1CC1)C21COC1 (single isomer, unassigned) [RP 12b] to NC1=NC2(CO1)c1cc(Br)ccc1OC1(CCC1)C21COC1 (centres unmarked) [RP 3], the IC50 falls from 81.3 µM to 33.8 µM (2.4-fold). The second is the more potent here.

Compared with CC1(C)Oc2ccc(-c3cncnc3)cc2C2(COC(N)=N2)C12COC2 (single isomer, unassigned) [RP 51a, 2′,2′-dimethyl-6′-(pyrimidin-5-yl)dispiro[1,3-oxazole-4,4′-chromene-3′,3″-oxetan]-2-amine], CC1(C)Oc2ccc(-c3cncc(C#N)c3)cc2C2(COC(N)=N2)C12COC2 (centres unmarked) [RP 160] is 50-fold lower in IC50: 48.6 µM for the first, 0.981 µM for the second. The second is the more potent here.

First: CC1(C)Oc2ccc(-c3cncnc3)cc2C2(COC(N)=N2)C12COC2 (single isomer, unassigned) [RP 51b, 2′,2′-dimethyl-6′-(pyrimidin-5-yl)dispiro[1,3-oxazole-4,4′-chromene-3′,3″-oxetan]-2-amine]
Second: CCSc1cccc(-c2ccc3c(c2)C2(COC(N)=N2)C2(COC2)C(C)(C)O3)c1 (centres unmarked) [RP 145]
The IC50 of the first is 5.4-fold lower: 0.172 µM for the first, 0.933 µM for the second.

NC1=NC2(CO1)c1cc(Br)c(F)cc1OCC21CC1 (centres unmarked) [RP 18] and NC1=NC2(CO1)c1cc(Br)ccc1OCC21CC(F)(F)C1 (centres unmarked) [RP 188] are within 1.5-fold of each other in IC50: 41.3 µM for the first, 50.6 µM for the second.

First: NC1=NC2(CO1)c1cc(Nc3ccccn3)ccc1OCC21COC1 (centres unmarked) [RP 25]
Second: Cc1cccc(CCc2ccc3c(c2)C2(COC(N)=N2)C2(COC2)CO3)c1 (centres unmarked) [RP 38]
The IC50 of the first is 2.1-fold higher: 36.9 µM for the first, 17.3 µM for the second.

Compared with COCCCc1ccc2c(c1)C1(COC(N)=N1)C1(COC1)CO2 (centres unmarked) [RP 35], NC1=NC2(COC1)c1cc(Br)ccc1OCC21COC1 (centres unmarked) [RP 114, 6′-bromo-6H-dispiro[1,4-oxazine-3,4′-chromene-3′,3″-oxetan]-5-amine] is 2.6-fold higher in IC50: 26 µM for the first, 68.3 µM for the second. The first is the more potent here.

NC1=NC2(c3cc(Br)ccc3OCC23CC3)c2cccc(F)c21 (centres unmarked) [RP 40, 6′-bromo-4″-fluorodispiro[cyclopropane-1,3′-chromene-4′,1″-isoindol]-3″-amine] and NC1=NC2(COC1)c1cc(Br)ccc1OCC21CC1 (centres unmarked) [RP 214, 6′-bromo-6″H-dispiro[cyclopropane-1,3′-chromene-4′,3″-[1,4]oxazin]-5″-amine] are within 1.5-fold of each other in IC50: 46.9 µM for the first, 40.3 µM for the second.

Going from Cc1ncccc1-c1ccc2c(c1)C1(COC(N)=N1)C1(COC1)C1(CCC1)O2 (centres unmarked) [RP 74] to NC1=NC2(CO1)c1cc(-c3cccnc3C(F)(F)F)ccc1OC1(CCC1)C21COC1 (centres unmarked) [RP 212], the IC50 falls from 35.4 µM to 17.6 µM (2-fold).

Compared with NC1=NC2(CO1)c1cc(-c3cncnc3)ccc1OCC21CCCO1 (centres unmarked) [RP 98], NC1=NC2(CO1)c1cc(-c3ccc(F)nc3)ccc1OC1(CCC1)C21COC1 (centres unmarked) [RP 119] is 18-fold lower in IC50: 64.1 µM for the first, 3.56 µM for the second.

NC1=NC2(CO1)c1cc(-c3ccc(F)nc3F)ccc1OC1(CCC1)C21COC1 (centres unmarked) [RP 121] and NC1=NC2(CO1)c1cc(-c3ccccc3F)ccc1OC1(CCC1)C21COC1 (centres unmarked) [RP 124] are within 1.5-fold of each other in IC50: 3.37 µM for the first, 3.59 µM for the second.

NC1=NC2(CO1)c1cc(-c3ccccc3)ccc1OC1(CCC1)C21COC1 (centres unmarked) [RP 123] and N#Cc1cc(-c2ccc3c(c2)C2(COC(N)=N2)C2(COC2)C2(CCC2)O3)ccc1F (centres unmarked) [RP 134] are within 1.5-fold of each other in IC50: 3.39 µM for the first, 3.63 µM for the second.

CC1(C)Oc2ccc(-c3cccc(OCC(F)(F)F)c3)cc2C2(COC(N)=N2)C12COC2 (centres unmarked) [RP 143] and COc1cc(-c2ccc3c(c2)C2(COC(N)=N2)C2(COC2)C(C)(C)O3)c(F)cn1 (centres unmarked) [RP 161] are within 1.5-fold of each other in IC50: 1.26 µM for the first, 1.41 µM for the second.

Going from CC1(C)Oc2ccc(-c3ccnc(Cl)c3Cl)cc2C2(COC(N)=N2)C12COC2 (centres unmarked) [RP 159] to COc1cc(-c2ccc3c(c2)C2(COC(N)=N2)C2(COC2)C(C)(C)O3)c(Cl)cn1 (centres unmarked) [RP 162], the IC50 falls from 2.12 µM to 1.04 µM (2-fold). The second is the more potent here.

First: CC1(C)Oc2ccc(C3=CCCCCC3)cc2C2(COC(N)=N2)C12COC2 (centres unmarked) [RP 165]
Second: CC1CC=C(c2ccc3c(c2)C2(COC(N)=N2)C2(COC2)C(C)(C)O3)CC1 (centres unmarked) [RP 166]
The IC50 of the first is 4.8-fold lower: 0.76 µM for the first, 3.63 µM for the second.

First: CCC/C=C/c1ccc2c(c1)C1(COC(N)=N1)C1(COC1)C(C)(C)O2 (centres unmarked) [RP 167]
Second: NC1=NC2(c3cc(Br)ccc3OCC23CC3)C(F)(F)CO1 (centres unmarked) [RP 216, 6′-bromo-5″,5″-difluoro-5″,6″-dihydrodispiro[cyclopropane-1,3′-chromene-4′,4″-[1,3]oxazin]-2″-amine]
The IC50 of the first is 64-fold lower: 0.869 µM for the first, 55.8 µM for the second.

Same assay, conditions: read-out: Test Example 1 inhibition

With COc1cnc(C(=O)Nc2ccc3c(c2)C2(COC(N)=N2)C2(COC2)C(C)(C)O3)cn1 (stereo in doubt) [Example 229a, N-[(4S)-2-amino-2′,2′-dimethyldispiro[1,3-oxazole-4,4′-chromene-3′,3″-oxetan]-6′-yl]-5-methoxypyrazine-2-carboxamide] the inhibition at 30 µM was 47.6%.

Molecular target: T1, BACE1
Assay: Measurement of Aβ production inhibition in cell (SK-N-BE(2) neuroblastoma cells, Aβ40 ELISA)
Conditions: Test Example 3 IC50, Aβ40 production, SK-N-BE(2) cells, 6 hours
Target sequence in this assay (P56817 46-501): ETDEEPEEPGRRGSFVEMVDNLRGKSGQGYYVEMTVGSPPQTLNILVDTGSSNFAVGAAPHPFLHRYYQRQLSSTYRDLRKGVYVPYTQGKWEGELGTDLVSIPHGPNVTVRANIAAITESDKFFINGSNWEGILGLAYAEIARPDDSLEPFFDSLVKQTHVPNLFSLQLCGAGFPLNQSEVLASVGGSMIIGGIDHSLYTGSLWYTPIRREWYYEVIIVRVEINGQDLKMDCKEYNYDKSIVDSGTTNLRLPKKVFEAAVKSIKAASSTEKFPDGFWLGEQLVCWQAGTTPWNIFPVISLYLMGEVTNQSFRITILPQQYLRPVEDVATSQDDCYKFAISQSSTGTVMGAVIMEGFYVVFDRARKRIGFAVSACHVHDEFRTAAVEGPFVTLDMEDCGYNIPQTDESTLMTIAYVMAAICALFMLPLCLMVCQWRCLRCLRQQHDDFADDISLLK

Going from COc1cncc(-c2ccc3c(c2)[C@@]2(COC(N)=N2)C2(COC2)[C@@H](C)O3)c1 (racemic) [RP 81] to CC1(C)Oc2ccc(-c3cncnc3)cc2C2(COC(N)=N2)C12COC2 (single isomer, unassigned) [RP 51b, 2′,2′-dimethyl-6′-(pyrimidin-5-yl)dispiro[1,3-oxazole-4,4′-chromene-3′,3″-oxetan]-2-amine], the IC50 falls from 0.51 µM to 0.072 µM (7.1-fold). The second is the more potent here.

In the case of CC#Cc1ccnc(-c2ccc3c(c2)C2(COC(N)=N2)C2(COC2)CO3)c1 (centres unmarked) [RP 56], the IC50 is reported as 0.74 µM.

Same assay, conditions: read-out: Test Example 3 IC50; Aβ40 production, SK-N-BE(2) cells, 6 hours

First: CC1(C)Oc2ccc(NC(=O)c3ccc(F)cn3)cc2C2(COC(N)=N2)C12COC2 (centres unmarked) [Example 28]
Second: CC1(C)Oc2ccc(NC(=O)c3ncc(Cl)cc3F)cc2C2(COC(N)=N2)C12COC2 (centres unmarked) [Example 30]
The IC50 of the first is 8.3-fold higher: 0.019 µM for the first, 0.0023 µM for the second.
